{"source": "patent US9884858B2", "about": "“Diaryl-azole compound” (Sumitomo Chemical Company, Limited, priority 2014, dated 2018)", "format_in_all_cases": "in vivo", "key": {"[1]": {"system": "Haemaphysalis longicornis", "assay": "Test Example 11: coated screw tube contact test, Haemaphysalis longicornis ticks", "settings": "2 mg compound coated on inner wall of screw tube, non-blood-sucking nymphal ticks, after 2 days", "experimental": "2 mg of each of the compounds 1-6, 1-10, 1-15, 1-24 or 1-37 to 1-38 was weighed in a screw tube (Maruemu No. 5; 27×55 mm), and 0.2 mL of acetone was added thereto and sealed with a cap to dissolve the compound. The screw tube was rotated and inverted to uniformly coat the liquid onto the whole inner wall of the tube. After removing the cap, the solution was air-dried for about 2 hours, then non-blood-sucking nymphal ticks, Haemaphysalis longicornis (5 ticks/group) were released, and the tube was sealed with the cap. After 2 days, the number of dead insects was counted, and the death rate was calculated according to the following equation: Death rate (%)=100×(Number of dead insects/Number of tested insects)"}, "[2]": {"system": "Blattella germanica", "assay": "Test Example 9: filter paper with sucrose bait, Blattella germanica", "settings": "500 ppm, 0.7 ml on filter paper, male imagoes, after 6 days", "experimental": "The formulation of the compound 1-6 or 1-24 as obtained in Formulation Example 5 was diluted with water, so as to have a concentration of each compound of 500 ppm, to obtain a diluent.\nA filter paper having a diameter of 5.5 cm was spread on the bottom of a polyethylene cup having the same diameter and 0.7 ml of the diluent was added dropwise onto the filter paper, and 30 mg of sucrose was uniformly placed as bait. Into the polyethylene cup, 2 male imagoes of Blattella germanica were released, and the cup was sealed with a lid. After 6 days, the life and death of Blattella germanica was examined, the number of dead insects was counted, and the death rate was calculated according to the following equation. Death rate (%)=(Number of dead insects/Number of tested insects)×100"}, "[3]": {"system": "Aphis gossypii", "assay": "Test Example 2: soil drench of cucumber seedling, later inoculated with Aphis gossypii", "settings": "500 ppm, 5 ml drench at foot of cucumber seedling, inoculated after 7 days, examined 6 days later", "experimental": "The formulations of the compound 1-24 as obtained in Formulation Example 5 was diluted with water, so as to have a concentration of each compound of 500 ppm, to obtain a diluent. On the other hand, a cucumber seedling (the second true leaf stage) planted in a plastic cup was drenched at its foot with 5 ml of the diluent, and kept in a greenhouse at 25° C. for 7 days. On the cucumber leaf surface was inoculated about 30 Aphis gossypii (whole stage), and further kept in the greenhouse for 6 days, then the number of the surviving Aphis gossypii parasitic on the leaves of the cucumber was examined, and the control value was calculated according to the following equation: Control value (%)=(1−(Cb×Tai)/(Cai×Tb))×100 wherein the symbols represent as follows: Cb: the number of the insects in a non-treated section on inoculating insects Cai: the number of the surviving parasitic insects in a non-treated section on observation Tb: the number of the insects in a treated section on inoculating insects Tai: the number of the surviving parasitic insects in a treated section on observation wherein the non-treated section refers to a section where a liquid prepared by diluting the formulation not containing the present compound in Formulation Example 5 with the same amount of water as in the treated section was sprayed."}, "[4]": {"system": "Nilaparvata lugens", "assay": "Test Example 4: soil drench of rice seedling, Nilaparvata lugens larvae released", "settings": "500 ppm, 5 ml drench at foot of rice seedling, third instar larvae released after 7 days, examined 6 days later", "experimental": "The formulation of the compound 1-15 as obtained in Formulation Example 5 was diluted with water, so as to have a concentration of the compound of 500 ppm, to obtain a diluent.\nOn the other hand, a rice seedling (2 weeks after sowing, the second leaf stage) planted in a plastic cup was drenched at its foot with 5 ml of the diluent, and kept in a greenhouse at 25° C. for 7 days. 20 third instar larvae of Nilaparvata lugens were released, and further kept in the greenhouse for 6 days, then the number of surviving Nilaparvata lugens parasitic on the rice was examined, and the death rate was calculated according to the following equation: Death rate (%)=(1−Surviving insects/20)×100\nwherein the non-treated section refers to a section where a liquid prepared by diluting the formulation not containing the present compound in Formulation Example 5 with the same amount of water as in the treated section was sprayed."}}, "data": [{"smiles": "CCSc1cc(C(F)(F)F)ccc1-c1nnc(-c2ccc(C(F)(F)F)cn2)s1", "note": "[Compound 1-10]", "values": [{"measurement": "Death rate", "setting": "[1]", "result": 100, "unit": "%"}]}, {"smiles": "CCS(=O)(=O)c1cccnc1-c1noc(-c2ccc(C(F)(F)F)s2)n1", "note": "[Compound 1-37]", "values": [{"measurement": "Death rate", "setting": "[1]", "result": 100, "unit": "%"}]}, {"smiles": "CCSc1cc(C(F)(F)F)ccc1-c1nc(-c2ccc(C(F)(F)F)cn2)no1", "note": "[Compound 1-6]", "values": [{"measurement": "Death rate", "setting": "[1]", "result": 100, "unit": "%"}, {"measurement": "Death rate", "setting": "[2]", "result": 100, "unit": "%"}]}, {"smiles": "CCS(=O)(=O)c1ccccc1-c1noc(-c2cc(C(F)(F)F)cc(C(F)(F)F)c2)n1", "note": "[Compound 1-24]", "values": [{"measurement": "Death rate", "setting": "[1]", "result": 100, "unit": "%"}, {"measurement": "controlling value", "setting": "[3]", "result": "≥ 90", "unit": "%"}, {"measurement": "Death rate", "setting": "[2]", "result": 100, "unit": "%"}]}, {"smiles": "CCS(=O)(=O)c1cccnc1-c1noc(-c2cc(Cl)cc(Cl)c2)n1", "note": "[Compound 1-38]", "values": [{"measurement": "Death rate", "setting": "[1]", "result": 100, "unit": "%"}]}, {"smiles": "CCS(=O)(=O)c1cccnc1-c1noc(-c2cc(C(F)(F)F)cc(C(F)(F)F)c2)n1", "note": "[Compound 1-15]", "values": [{"measurement": "Death rate", "setting": "[4]", "result": "≥ 90", "unit": "%"}, {"measurement": "Death rate", "setting": "[1]", "result": 100, "unit": "%"}]}]}
